# What was measured:
# [1] = Total Oxygen radical Scavenging Capacity (TOSC) assay; assay type: biochemical; conditions: for total antioxidant activities, times higher than Trolox: in momordica cochinchinensis aril; for antioxidant capacity, higher than Trolox: in the gac oil
# Protocol: (§1) Antioxidant capacities were assessed by the overall abilities of the compounds to suppress peroxyl radicals generated from the thermal homolysis of 2,2′-azobis-amidinopropane. Stock solutions of all samples were diluted 1/100 and 1/1000. […] However, at a lower concentration (dilution of 1/1000), the gac aril provided the highest peroxyl radical-scavenging capacity, 1.8 and 1.3 times as much as β-carotene and lycopene, respectively (FIG. 1b).
# Using the TOSC method, it was apparent that total antioxidant activities of beta-carotene and lycopene in momordica cochinchinensis aril were high (2 times higher than Trolox), an analogue of Vitamin E commonly used a gold standard. The comparative TOSC values (cTOSC) of gac (Redmelon™) aril maintains 5.4 times greater than Trolox. […] The results are summarized below in the following table
# [2] = Oxygen Radical Absorbance capacity (ORAC) assay; assay type: biochemical; conditions: 1/100 dilution of stock solutions; FIG. 1a
# Protocol: Those figures depict graphical comparison of the antioxidant values of momordica cochichinchinensis (gac) aril, β-carotene, and lycopene using […] (ORAC) assay, ORAC values were obtained using a Trolox standard linear regression line.
# as §1
compound,measurement,setting,value
Cc1c(C)c2c(c(C)c1O)CCC(C)(C(=O)O)O2 (stereo not drawn) [Trolox],cTOSC,[1]; comparative TOSC value,1.00
same,rTOSC,[1]; peroxyl radical scavenging capacity,4.51
CC1=C(/C=C/C(C)=C/C=C/C(C)=C/C=C/C=C(C)/C=C/C=C(C)/C=C/C2=C(C)CCCC2(C)C)C(C)(C)CCC1 [beta-carotene],"total antioxidant activities, times higher than Trolox",[1]; relative to Trolox,2 times
same,"antioxidant capacity, higher than Trolox",[1]; relative to Trolox,50%
CC(C)=CCC/C(C)=C/C=C/C(C)=C/C=C/C(C)=C/C=C/C=C(C)/C=C/C=C(C)/C=C/C=C(\C)CCC=C(C)C [lycopene],"ability to scavenge peroxyl radicals, times as much as the Redmelon™ aril",[2],1.4 times
same,"ability to scavenge peroxyl radicals, times as much as β-carotene",[2],2.4 times
same,"total antioxidant activities, times higher than Trolox",[1]; relative to Trolox,2 times
same,"antioxidant capacity, higher than Trolox",[1]; relative to Trolox,50%
same,"peroxyl radical scavenging capacity (rTOSC), times greater than Trolox",[1]; relative to Trolox,24 times

# Reference: patent US8668942B2, “Skin anti-oxidant enhancing formulation and associated method” (Fishrock Laboratories, Inc., priority 2012, dated 2014)
